What was measured:
[1] = tested on: U-87 MG glioblastoma cells; assay: Glioblastoma cell proliferation, CellTiter-Glo luciferase assay, U-87 MG; assay type: cell-based, human; details: 0-50 μM, 72 and 96 h
Protocol: Relative cell density was measured using the CellTiter-Glo luciferase assay. n=3 wells per condition. *p<0.05, **p<0.01, ***p<0.001 vs. 0 μM, one-way ANOVA with Dunnett's multiple comparisons test.
The effect of S3QELs on proliferation of glial tumor cells that have different oncogenic mutations was assessed. In particular, proliferation rates were assessed in three different human immortalized glioblastoma cells lines (A-172, T98G, and U-87 MG). A-172 and U-87 lines have mutations in PTEN, a phosphatase that indirectly regulates PI3K activities, whereas T98G cell line has a mutation in p53, a well-known tumor suppressor gene. STAT3 can affect PI3K signaling and p53 transcription and could thereby promote glioblastoma cell proliferation. Whether S3QELs reduce glioblastoma cell proliferation and aberrant intracellular signaling was tested.
Briefly, two complementary methods were used to assess cell proliferation, including the CellTiter-Glo assay and DAPI staining of cell nuclei. The effects of S3QEL2 treatment on A-172, T98G, and U-87 MG cells were measured at different drug concentrations (0, 6, 20, 30, 40, or 50 μM) and time-points after treatment (72 or 96 hours). S3QEL2 inhibits proliferation of A-172 and T98G glioblastoma cells in a highly dose-dependent manner and these effects are similar at different time-points (FIG. 15A-B).

[2] = tested on: primary neurons with primary mouse microglia; assay: Tau-associated neuronal damage in primary neurons cultured with microglia; assay type: cell-based; details: 10 μM; AAV human P301S tau
Protocol: (§1) Primary neurons were immunostained for MAP2 or NeuN following mock treatment or transduction with AAV encoding human P301S mutant tau under the synapsin-1 promoter. Neurons were cultured without (FIGS. 9A-9B) or with (FIGS. 9C-9D) primary mouse microglia. S3QEL2 (S3, 10 μM). n=4 per condition.
(§2) To begin dissecting the mechanisms by which S3QEL2 affects neural cell function and disease-linked processes, studies in primary cultures were conducted. Isolated mouse-derived neurons were transduced with adeno-associated viral vectors (AAVs) encoding wild-type or the P301S mutant form of the human tau protein (FIG. 8A). […] However, S3QEL reduced neuronal damage in the presence of astrocytes (approx. 30% astrocytes, FIG. 10A). Tau can also promote aberrant neuronal activity and hypersynchrony. S3QEL reduced aberrant neuronal firing in tau-transduced neurons co-cultured with astrocytes (FIGS. 10B-10C).

primary astrocytes = assay: Intracellular ATP levels in primary astrocytes; assay type: cell-based
Excerpt: Antimycin A and myxothiazol were used as positive controls to inhibit mitochondrial respiration and ATP production. n=3 wells per condition. ***p<0.001 vs. vehicle, mixed-effects model with Dunnett's multiple comparisons test.

STAT3 = assay: Phospho-STAT3 and total STAT3 in primary astrocytes (Western blotting); assay type: cell-based, mice; details: for Phosphorylated STAT3 levels / Total STAT3 levels: S3QEL2 60 μM
Protocol: (FIGS. 11A-11B) Astrocytes isolated from P2-P3 mice were treated with oligomeric Aβ (3 μM) and S3QEL2 (S3, 20 μM) or vehicle (V) for 24 h and analyzed by qRT-PCR (FIG. 11A) or Western blotting (B) and normalized to vehicle controls. (FIG. 11B) Phospho-STAT3 levels were normalized to total STAT3 per sample. n=3 wells per condition; *p<0.05, **p<0.01, ***p<0.001, ANOVA with Dunnett's test.
(FIGS. 12A-12B) Astrocytes isolated from P2-P3 mice were treated with oligomeric Aβ (3 μM) (A) or A1 cocktail consisting of 30 ng/mL TNF-α, 3 ng/mL IL-1α, and 400 ng/mL Clq (B), and S3QEL2 (S3, 60 μM) or vehicle (Con) for indicated durations and analyzed by Western blotting. Phospho-STAT3 levels were normalized to total STAT3 per sample, and total STAT3 levels were normalized to γ-tubulin levels per sample. n≥3 wells per condition; *p<0.05, **p<0.01, ***p<0.001, one-way ANOVA with Tukey's multiple comparisons test.
(FIG. 17A) Astrocytes isolated from P2-P3 mice were treated with A1 cocktail consisting of 30 ng/ml TNF-α, 3 ng/ml IL-1α, and 400 ng/ml Clq, and S3QEL1.2 (3 μM) or vehicle for approximately 6 h and analyzed by Western blotting. Phospho-STAT3 levels were normalized to total STAT3 per sample. n=6 wells per condition. **p<0.01, ***p<0.001, one-way ANOVA with Dunnett's multiple comparisons test. (FIG. 17B) Astrocytes isolated from P2-P3 mice were treated with A1 cocktail consisting of 30 ng/ml TNF-α, 3 ng/ml IL-1α, and 400 ng/ml Clq for 24 h, and analyzed for levels of released H2O2 using Amplex UltraRed, a fluorogenic substrate that is a highly sensitive indicator of H2O2, in the presence of horseradish peroxidase and superoxide dismutase. n=6 wells per condition. *p=0.01, Student's t test. (FIG. 17C) Astrocytes isolated from P2-P3 mice were treated with vehicle or 3 ng/ml IL-1α and either S3QEL2 (20 μM), S3QEL1.2 (1 μM), or vehicle for approximately 24 h, and analyzed for levels of released H2O2 using Amplex UltraRed. n=6 wells per condition. *p<0.05, **p<0.01, ***p<0.001, two-way ANOVA with Bonferroni's multiple comparisons test.
Similar to oligomeric Aβ, A1 cocktail (which is a mixture of TNF-α, IL-1α, and Clq) induced astrocytic reactivity that is associated with synaptic damage and neurodegeneration.
Given that this compound has a different chemical structure, these findings indicate that S3QELs suppress astrocytic reactivity and neuroinflammatory responses through modulation of complex III ROS rather than modulation of other off-target or nonspecific mechanisms.

primary neurons = assay: Tau-associated neuronal damage in primary neurons cultured alone (AAV-TauP301S, MAP2/NeuN immunostaining); assay type: cell-based, mouse; details: 10 μM; AAV human P301S tau
Protocol: as §1, §2

[3] = Drug tolerance during chronic oral administration (body weight, behavior); assay type: in vivo, mice
Protocol: (FIGS. 1C-D) Body weights of male nontransgenic (NTG) or hTauP301S mice treated with S3QEL2 (FIG. 1C) (S3, 5 mg/kg/day, PO in almond butter), S1QEL1.1 (FIG. 1D) (10 mg/kg/day, PO in almond butter), or vehicle. (FIG. 1E) Levels of S3QEL2 in the mouse brain following almond butter (AB) or chow administration at indicated doses for 21 days. (n=15 mice per dose). n=3-15 wild-type mice per condition. (FIG. 1F) Body weight of 4-5-month-old wild-type male mice treated with formulated chow containing S3QEL2 at indicated doses and durations (n=15 mice per dose).
A series of pharmacokinetic and drug tolerance experiments with S3QEL2 in adult wild-type and transgenic hTauP301S mice was first performed. Different administration routes and drug formulations were tested. […] Chow that was formulated to deliver 0, 5, 15, or 30 mg/kg/day of S3QEL2 was also tested.

[4] = A1 cocktail (TNF-α, IL-1α, Clq)

## CCCN(CCC)c1ncnc2c1cnn2-c1ccc(C)c(C)c1 [S3QEL2]
[1]
  Cell proliferation (relative cell density, CellTiter-Glo): minimal effect
[2]
  Tau-associated neuronal damage, neurons cultured with microglia: did not affect tau-associated neuronal damage
Primary astrocytes
  Intracellular ATP levels: do not affect intracellular ATP levels
STAT3; [4]
  Phosphorylated STAT3 levels: reduced
  Total STAT3 levels: reduced
STAT3; oligomeric Aβ 3 μM, S3QEL2 20 μM, 24 h
  Phospho-STAT3 levels normalized to total STAT3: reduced
STAT3; oligomeric Aβ 3 μM
  Phosphorylated STAT3 levels: reduced
  Total STAT3 levels: reduced
Primary neurons
  Tau-associated neuronal damage, neurons cultured alone: did not affect tau-associated neuronal damage
[3]; PO in almond butter, S3QEL2 5 mg/kg/day, S1QEL1.1 10 mg/kg/day, NTG or hTauP301S mice
  Adverse health effects such as weight loss or altered behavior: did not result in obvious adverse health effects
[3]; chow 5, 15 or 30 mg/kg/day, high doses and long treatment durations, adult wild-type mice
  Tolerability of chow administration: tolerated well

— patent US20240058344A1, “METHODS OF TREATING NEURODEGENERATIVE DISORDERS AND STAT3-LINKED CANCERS USING SUPPRESSORS OF ELECTRON LEAK” (Cornell University, priority 2020, published 2024)
